Experimental data published in patent publication US20250171776A1, “NON-CANONICAL CELL-PENETRATING PEPTIDES FOR ANTISENSE OLIGOMER DELIVERY” (priority 2023, published 2025).
Where no end group is shown, it is not given here. [ ]: non-standard residue; d: D form. Iph = iodophenylalanine

How the values were obtained:
Assay type in all cases: cell-based
HeLa 654 cells [1] = test: HeLa 654 eGFP assay (flow cytometry, mean eGFP fluorescence, 22 h); conditions: 1 μM, 22 h
Method: Purified constructs were then tested using an activity-based readout in which nuclear delivery results in fluorescence. Briefly, HeLa cells stably transfected with an Enhanced Green Fluorescent Protein (eGFP) gene interrupted by a mutated intron of β-globin (IVS2-654) produce a non-fluorescent eGFP protein. As used herein, Hela-654 cells refers to the Hela cells transfected with an Enhanced Green Fluorescent Protein (eGFP) gene interrupted by a mutated intron of β-globin (IVS2-654) and Hela-654 eGFP Assay is used to refer to an Assay that uses the Hela-654 cells. Successful delivery of PMO IVS2-654 to the nucleus results in corrective splicing and eGFP synthesis.
The amount of PMO delivered to the nucleus is therefore correlated with eGFP fluorescence, quantified by flow cytometry. Activity was reported as mean fluorescence intensity (MFI) relative to PMO alone. This activity assay provides indirect information on how much active PMO is delivered to the nucleus. Relative efficiency of a PMO-CPP conjugate was characterized by comparing activity to internal concentration.
[…] 18 h prior to treatment, the cells were plated at a density of 5,000 cells per well in a 96-well plate in DMEM supplemented with 10% FBS and 1% penicillin-streptomycin.
For individual peptide testing, PPMOs were dissolved in phosphate buffered saline (PBS) without Ca^2+ or Mg^2+ at a concentration of 1 mM (determined by UV absorbance of the PMO) before being diluted in Dulbecco's modified eagle medium (DMEM). Cells were incubated at the designated concentrations in triplicate for 22 h at 37° C. and 5% CO2. Next, the treatment media was removed, and the cells were washed once before being incubated with 0.25% Trypsin-EDTA for 15 min at 37° C. and 5% CO2. Lifted cells were transferred to a V-bottom 96-well plate and washed once with PBS, before being resuspended in PBS containing 2% FBS and 2 μg/mL propidium iodide (PI). Flow cytometry analysis was carried out on a BD LSRII flow cytometer. Gates were applied to the data to ensure that cells that were positive for propidium iodide or had forward/side scatter readings that were sufficiently different from the main cell population were excluded. Each sample was capped at 5,000 gated events.
Analysis was conducted using Graphpad Prism 7 and FlowJo. For each sample, the mean fluorescence intensity (MFI) and the number of gated cells were measured. To report activity, triplicate MFI values were averaged and normalized to the PMO alone condition.

HELA-654 cells = test: Hela-654 eGFP assay (incucyte imaging, GFP positive cells, 72 h); conditions: chimeric peptide PMO conjugates, 72 h, read-out: EC50 (at 72 h)
Method: HELA-654 cells were imaged at 72 hours with an incucyte and the number of GFP positive cells versus total cell counts were calculated with the incucyte image analysis software. Statistical analysis was conducted using a one-way analysis of variance (ANOVA) test with Dunnett's multiple comparison test. Bars represent mean±standard deviation (SD), with P<0.05 was considered to indicate statistical significance, (**** p<0.0001, *** […], ** p<0.01, * p<0.05).
HELA-654 cells were imaged at 72 hours with an incucyte and the number of GFP positive cells versus total cell counts were calculated with the incucyte image analysis software.

HeLa 654 cells [2] = test: Lactate dehydrogenase (LDH) release assay in HeLa 654 cells; conditions: 50 μM
Method: (§1) The media from the cells was analyzed for LDH release with an LDH assay and the percentage of LDH release was calculated relative to fully lysed cells.
(§2) Cytotoxicity assays were performed in HeLa 654 cells or TH-1 renal cells. TH-1 cells were maintained in DMEM supplemented with 10% (v/v) fetal bovine serum (FBS) and 1% (v/v) penicillin-streptomycin at 37° C. and 5% CO2H-1. Cells were plated at 5,000 cells/well in a 96-well plate 18-hours prior to treatment and treated with PMO-peptide compounds as described above. HeLa cell LDH assays were performed concurrently on the cells treated for Flow cytometry, so all plating and treatment protocols match those described above.
(§3) 17 hours after cell treatment, the Promega CytoTox lysis solution was added to 3 wells of each plate as a fully lysed control (100% LDH-release). 18 hours after treatment, cell supernatant was transferred to a new 96-well plate for analysis of LDH release. To each well of the 96-well plate containing supernatant was added CytoTox 96 Reagent (Promega). […] Equal volume of Stop Solution was added to each well, mixed, and the absorbance of each well was measured at 490 nm. The measurement of vehicle-treated cells was subtracted from each measurement, and % LDH release was calculated as % cytotoxicity=100×Experimental LDH Release (OD490)/Maximum LDH Release (OD490).

TH-1 renal cells = test: Lactate dehydrogenase (LDH) release assay in TH-1 renal cells; conditions: LDH release at 18 hours
Method: as §1, §2, §3

Lys-Gln-Lys-Thr-Ser-Iph-Gly-Arg-Lys-Trp-Lys-Gln-Lys-Thr-Ser-Iph-Gly-Arg-Lys-Trp-Lys-Lys (KQKTS[Iph]GRKWKQKTS[Iph]GRKWKK; not fully specified (N-terminus, C-terminus); printed as Lys-Gln-Lys-Thr-Ser-Iph-Gly-Arg-Lys-Trp-Lys-Gln-Lys-Thr-Ser-Iph-Gly-Arg-Lys-Trp-Lys-Lys; also: PMO IVS2-654 conjugate) [CXD1B]
PMO delivery (mean eGFP fluorescence relative to vehicle) (HeLa 654 cells [1]): high PMO delivery
EC50 (HELA-654 cells): 3.54 µM
Toxicity: LDH release (HeLa 654 cells [2]): lower toxicity than the CXP1-CXP1 sequence
Therapeutic window (HeLa-654 eGFP efficacy versus LDH release in TH-1 renal cells) (TH-1 renal cells): wider therapeutic window in comparison to other PMO-peptide conjugates
